Experiments:
Test in all cases: normalised viability (% of control), CellTiter-Blue; higher = more viable cells (about 100 = DMSO control)
Settings in all cases: incubation time: 72 h
MDA-MB-468 = system: MDA-MB-468
Procedure, shortened: (§1)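 Each value is normalised viability at a single listed concentration of the series. Breast cancer cell lines in 384-well plates were incubated 72 h with compound and read by CellTiter-Blue fluorescence at 560/590 nm, with vehicle set to 100 and a positive kill control to 0 on every plate.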

BT-549 = system: BT-549
Procedure, shortened: as §1

HDQ-P1 = system: HDQ-P1
Procedure, shortened: as §1

HCC1937 = system: HCC1937
Procedure, shortened: as §1

CAL-148 = system: CAL-148
Procedure, shortened: as §1

HCC1143 = system: HCC1143
Procedure, shortened: as §1

SK-BR-3 = system: SK-BR-3
Procedure, shortened: as §1

HCC1599 = system: HCC1599
Procedure, shortened: as §1

Hs578T = system: Hs578T
Procedure, shortened: as §1

CAL-120 = system: CAL-120
Procedure, shortened: as §1

Row | Compound | normalised viability (MDA-MB-468; 10 nM) [%] | normalised viability (MDA-MB-468; 1000 nM) [%] | normalised viability (MDA-MB-468; 10000 nM) [%] | normalised viability (BT-549; 10 nM) [%] | normalised viability (BT-549; 1000 nM) [%] | normalised viability (BT-549; 10000 nM) [%] | normalised viability (HDQ-P1; 3 nM) [%] | normalised viability (HDQ-P1; 30 nM) [%] | normalised viability (HDQ-P1; 100 nM) [%] | normalised viability (HCC1937; 10 nM) [%] | normalised viability (HCC1937; 1000 nM) [%] | normalised viability (HCC1937; 10000 nM) [%] | normalised viability (CAL-148; 3 nM) [%] | normalised viability (CAL-148; 30 nM) [%] | normalised viability (CAL-148; 100 nM) [%] | normalised viability (HCC1143; 10 nM) [%] | normalised viability (HCC1143; 1000 nM) [%] | normalised viability (HCC1143; 10000 nM) [%] | normalised viability (SK-BR-3; 10 nM) [%] | normalised viability (SK-BR-3; 1000 nM) [%] | normalised viability (SK-BR-3; 10000 nM) [%] | normalised viability (HCC1599; 10 nM) [%] | normalised viability (HCC1599; 1000 nM) [%] | normalised viability (HCC1599; 10000 nM) [%] | normalised viability (Hs578T; 10 nM) [%] | normalised viability (Hs578T; 1000 nM) [%] | normalised viability (Hs578T; 10000 nM) [%] | normalised viability (CAL-120; 10 nM) [%] | normalised viability (CAL-120; 1000 nM) [%] | normalised viability (CAL-120; 10000 nM) [%]
1 | COc1cc(Nc2ncc3c(n2)-c2ccc(Cl)cc2C(c2c(F)cccc2OC)=NC3)ccc1C(=O)O [MLN8237] | 96.7 | 42.6 | 35.2 | 103 | 62.6 | 32.6 | 102 | 82.2 | 64 | 68 | 40 | 42.2 | 86.7 | 89.9 | 78.1 | 112 | 70.7 | 51.1 | 87.3 | 59.5 | 46.8 | 103 | 87.7 | 66.9 | 113 | 59.2 | 45.6 | 104 | 59.8 | 33.6
2 | S=c1[nH]cnc2nc[nH]c12 [Mercaptopurine] | 108 | 64.9 | 69 | 115 | 105 | 95.6 | 123 | 110 | 100 | 87.5 | 86.9 | 48.1 | 99.5 | 98.7 | 92.8 | 85.8 | 95.7 | 88.5 | 107 | 95.6 | 63.5 | 103 | 96.3 | 106 | 118 | 123 | 86.7 | 88.1 | 83.7 | 47.3
3 | Clc1ccc(C(c2ccccc2Cl)C(Cl)Cl)cc1 (stereo not given) [Mitotane] | 108 | 102 | 102 | 83 | 93 | 102 | 117 | 102 | 100 | 79.9 | 91.1 | 79.4 | 89.2 | 94.2 | 95.7 | 82.9 | 81.2 | 91.4 | 105 | 104 | 82.3 | 97 | 88.2 | 97.1 | 96.6 | 86.7 | 107 | 80.8 | 87.8 | 86
4 | COc1cccc2cc(-c3nc([C@H]4CC[C@H](C(=O)O)CC4)n4ncnc(N)c34)[nH]c12 [OSI-027] | 87.8 | 66.4 | 22 | 98.9 | 76 | 16.1 | 78.3 | 80.4 | 76.8 | 71.7 | 59.8 | 33.9 | 86.7 | 87.5 | 82.2 | 101 | 72.9 | 35 | 93.7 | 19 | 13.1 | 106 | 72.4 | 47 | 99.4 | 59.1 | 23.6 | 101 | 66.4 | 12.5
